Laboratory results published in EP1352247B1, “ASSAY METHODS FOR IDENTIFYING COMPOUNDS WHICH MAY PROTECT STRATIFIED SQUAMOUS EPITHELIUM AGAINST DAMAGE BY NOXIOUS SUBSTANCES” (The Administrators of the Tulane Educational Fund, priority 2000, dated 2002).

What was measured:
[1] = target: T1, extracellular domain of human Uvomorulin/E-Cadherin (Homo sapiens, UniProt P12830); test: Human E-cadherin EIA kit: competition with Mab binding to the extracellular domain of E-cadherin; details: for % Binding: Mab binding vs vehicle control = 100
T1 construct: the approximately 80 kD extracellular domain of Uvomorulin/E-Cadherin provided in the E-cadherin EIA kit; purchased Zymed Laboratories, San Francisco, CA
T1 sequence (P12830 155-709 limits assumed): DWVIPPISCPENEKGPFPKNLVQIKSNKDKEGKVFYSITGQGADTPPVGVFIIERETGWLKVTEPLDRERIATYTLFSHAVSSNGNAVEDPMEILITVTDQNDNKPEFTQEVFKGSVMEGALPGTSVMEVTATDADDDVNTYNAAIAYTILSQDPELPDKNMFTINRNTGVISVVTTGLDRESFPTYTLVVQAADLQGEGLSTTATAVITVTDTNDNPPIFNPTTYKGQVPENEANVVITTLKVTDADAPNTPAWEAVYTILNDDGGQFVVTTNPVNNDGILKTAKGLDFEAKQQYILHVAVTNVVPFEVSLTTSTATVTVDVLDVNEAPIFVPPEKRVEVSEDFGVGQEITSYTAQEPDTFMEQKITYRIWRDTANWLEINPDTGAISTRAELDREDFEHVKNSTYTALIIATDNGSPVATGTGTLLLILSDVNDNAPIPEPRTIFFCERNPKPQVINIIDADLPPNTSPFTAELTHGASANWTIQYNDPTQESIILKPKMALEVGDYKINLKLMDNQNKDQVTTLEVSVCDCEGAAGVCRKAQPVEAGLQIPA
Source text: The kit enables the antigen to be exposed to agents or antibodies prior to exposure to the standard Mab to the extracellular domain of Uvomorulin/E-cadherin. The ability of the agent or antibody to block the binding of the Mab to the extracellular domain of Uvomorulin/E-cadherin can then be used to determine if competition for binding sites on the antigen has occurred. Comparative binding is based on the quantity of binding observed when the Mab to Uvomorulin/E-cadherin is placed in contact with antigen in the absence of prior exposure to test agent or antibody. The experimental control for test agents is vehicle (normal Ringer solution) and for monoclonal or polyclonal antibodies is an equivalent amount of nonspecific immune serum globulin (IgG). The quantity of binding of the Mab to Uvomorulin/E-cadherin to antigen in the absence of test agent or test antibody is labeled as control and whose value is normalized to 100%.
The Human E-cadherin EIA kit (Zymed Laboratories, San Francisco, CA) was used as in the method described in Example 5 to determine binding of test compounds, SITS, SOS, CDDD-1192, CDDD-1193 and 1,3-benzene disulfonic acid (1,3-BDSA) to the approximately 80 kD extracellular domain of Uvomorulin/E-Cadherin provided in the E-cadherin EIA kit. This was done by adding the extracellular domain of human Uvomorulin/E-Cadherin to a solution with varying concentrations of the compounds in the nanomolar to millimolar range or with vehicle (control, normal Ringer solution) for […]. Following incubation for 2 hrs, the solution is added to a solid phase microtiter plate, provided in the EIA kit, to which a mouse monoclonal anti-human Uvomorulin/E-cadherin antibody (Zymed Laboratories, San Francisco, CA) is bound. This permits antigen with epitopes unoccupied by test compound to bind to the plate. After washing the plate with Tris buffer containing 0.1 % Tween-20 (Promega, Madison, Wisconsin) and 5 mM calcium chloride, the second mouse monoclonal anti-human Uvomorulin/E-cadherin antibody labeled with peroxidase is used to tag the bound antigen. After an additional incubation for 1 hr and washing with Tris buffer, the peroxidase is detected with substrate (hydrogen peroxide and tetramethyl-benzidine in buffered solution, as included in the EIA test kit) by incubating for 15 min at room temperature and stopping of the reaction with 1N […]. […] The amount of Uvomorulin/E-cadherin is quantitated by measuring absorbance at 450 nm within an hour following development using an EIA plate reader (Vmax Plate Reader, Molecular Devices, Sunnyvale, CA). The degree of binding of a compound to the extracellular domain of Uvomorulin/E-cadherin is determined by the reduction in antigen detection in the plate exposed to test compound compared to that for the control plate (100%) where no compound was present (Table 2).

[2] = test system: rabbit esophageal epithelium
Experimental: Sections of rabbit esophageal epithelium, mounted in Ussing chambers and stabilized for 45 min, were exposed both luminally and serosally to calcium-free solution containing EDTA, 3 mM.
Sections of rabbit esophageal epithelium were mounted in Ussing chambers and exposed luminally to trypsin, 0.01%, in the presence or absence of a calcium-free bathing solution.
Sections of rabbit esophageal epithelium were mounted in Ussing chambers and exposed luminally to either SITS, 4 mM, or vehicle (Ringer) as control for 30 min.

[3] = test system: rabbit esophageal epithelium; test: Junctional resealing (recovery of R after calcium restoration or return to isoosmolality) in Ussing chambers; type: cell-based; details: luminal 4 mM for 30 min and during calcium-free period; after restoration of calcium (0 mM SITS), n=3
Source text: When calcium-containing (normal Ringer) solution was restored to the bathing solutions after 1, 2, or 4 hrs of calcium-free exposure, there was a progressive return of R toward initial baseline values, with complete reversibility observed for tissue exposed to calcium-free solution for 1 hr and 2 hr exposures and an 80% recovery in R for tissue exposed to calcium-free for 4 hrs within 1 hr of restoring calcium to the baths.
Sections of rabbit esophageal epithelium prepared as in Example 1 were exposed luminally and serosally to a calcium-free solution containing 3 mM EDTA to open the junctions as shown by the progressive decline in R to 60±4% and 65±4% of initial R for experimental and control tissues, respectively, by 2 hrs (n = 8 for each group, p > 0.05). Tissues were then treated luminally for 20 min with either 10 µg/ml of a monoclonal antibody (Mab) to Uvomorulin/E-cadherin (Sigma Chemical, St. Louis, MO) or, as control, to 10 µg/ml of nonspecific immune serum globulin (IgG). Following exposure to Mab or IgG, a calcium-containing (normal Ringer) solution was restored to the bathing solutions and the recovery of R monitored over time.
The intercellular junctions of stratified squamous epithelium can also be opened by exposure to hypertonic saline. […]

esophageal epithelium = details: cited from earlier work

O=S(=O)(O)OCC(OS(=O)(=O)O)C(Oc1ccc(N=C=S)cc1)c1ccc(N=C=S)cc1 (centres unmarked) [CDDD-1193, disodium 3-(4-isothiocyanatophenoxy)-3-(4-isothiocyanatophenyl)propane-1,2-disulfate]
% Binding ([1]; agent 40 nM): 110±6%
% Binding ([1]; agent 40 uM): 83±3 %
% Binding ([1]; agent 4 mM): 38±0.75 %

CC(=O)Nc1ccc(C=Cc2ccc(N=C=S)cc2S(=O)(=O)O)c(S(=O)(=O)O)c1 [SITS, 4-acetamido-4'-isothiocyano-2,2'-stilbene disulfonate]
% Binding ([1]; agent 40 uM): 77±3 %
% Binding ([1]; agent 4 mM): 26±3 %
% Binding ([1]; agent 8 mM): 20±3 %
R declined to ([2]; calcium-free solution (3 mM EDTA) with 4 mM SITS, over 2 hr): 68±3%
recovery of R [3]: 75±3%

O=C(O)CN(CCN(CC(=O)O)CC(=O)O)CC(=O)O [EDTA]
effect on R ([2]; 3 mM alone, over the described time frame (up to 4 hrs)): no effect on R

O=S(=O)(O)OCC(OS(=O)(=O)O)C(Oc1ccccc1)c1ccc(N=C=S)cc1 (centres unmarked) [CDDD-1192, disodium 3-(4-isothiocyanatophenyl)-3 phenoxypropane-1,2-disulfate]
% Binding ([1]; agent 0.4 uM): 103±6%
% Binding ([1]; agent 4 mM): 77±13 %

O=S(=O)(O)OC[C@H]1O[C@@](COS(=O)(=O)O)(O[C@H]2O[C@H](COS(=O)(=O)O)[C@@H](OS(=O)(=O)O)[C@H](OS(=O)(=O)O)[C@H]2OS(=O)(=O)O)[C@@H](OS(=O)(=O)O)[C@@H]1OS(=O)(=O)O [SOS, sucrose octasulfate]
binding to the extracellular domain of Uvomorulin/E-cadherin / inhibition of Mab binding (in words) [1]: dose-dependently binds
% Binding ([1]; agent 4 mM): 83±0.3 %
% Binding ([1]; agent 10 mM): 76±0.3 %
protection against acid-induced injury, reversibility (esophageal epithelium): irreversibly protect

O=S(=O)(O)c1cccc(S(=O)(=O)O)c1 [1,3 BDSA, 1,3-benzene disulfonic acid]
% Binding ([1]; agent 4 mM): 104±3%
effect against acid injury (esophageal epithelium; 4 mM, as shown in U.S. Patent No. 5,189,056 and 5,374,537): ineffective against acid injury
